Read-outs that look alike come from different tables or passages of the source.
System: MYO5A
Assay: Gene modulation (RT-qPCR, PCR array mQPA H-Melanocyte-64) in normal human epidermal melanocytes (NHEM)
Format: cell-based
Conditions: NHEM cells
Procedure: Normal human epidermal melanocytes were cultivated for 24 hours. Culture medium was then removed and replaced by fresh medium containing the active ingredient to be evaluated or exempt of it (control). Cells were cultivated for additional 72 hours. All experimental conditions were performed in triplicate.
At the end of the cultivation, the cells were harvested and washed with phosphate buffered saline (PBS) solution and immediately frozen at -80 °C. The expression of selected markers was analyzed using RT-qPCR method on mRNA extracted from cells layer for each treatment condition. The differential expression analysis was performed by PCR arrays of the screening format "mQPA H-Melanocyte-64", which focuses on 64 genes selected for their importance in pigmentation and melanocyte biology.
Total RNA was extracted from each sample using TRI-Reagent®. The amount and quality of the RNA was evaluated using a lab-on-a-chip Bioanalyzer (Agilent technologies). Potential contaminants traces of DNA were removed […] The incorporation of fluorescence in amplified DNA was measured continuously during the PCR cycles. […] The value selected for RE calculations is the "output point" (Ct) of the fluorescence curve. For a given marker, the highest is the cycle number; the lowest, is the mRNA quantity. The RE value is expressed in arbitrary units (AU) according to the equation: (((1)/(2)))^NC x 10^6 [formula] Where NC is the number of cycles.
The analysis of the gene expression of selected melanogenesis genes in NEHM cells treated with resveratrol (5 micrograms/ml) on one side, and Niaciamide (0.5 mg/ml) on the other side, has been compared with the gene expression of the same selected melanogenesis genes in NEHM cells treated with a combination of resveratrol (5 micrograms/ml) and Niaciamide (0.5 mg/ml).

[1] = 72 hours treatment, resveratrol 5 µg/ml, niacinamide 0.5 mg/ml, combination 5 µg/ml + 0.5 mg/ml, read-out: MYO5A (expression ratio compared to control)
[2] = 72 hours, resveratrol 5 micrograms/ml alone or niacinamide 0.5 mg/ml alone, read-out: down-regulation of MYO5A (signed change when compared to untreated cells)

Q: With `NC(=O)c1cccnc1` [Niacinamide, 3-pyridinecarboxamide] as the compound, how does the inhibition at 500 µg/mL [1] read?
A: 15%

Q: And the inhibition at 500 µg/mL [2]?
A: 15%

Q: For `Oc1ccc(C=Cc2cc(O)cc(O)c2)cc1` [Resveratrol, 3,4',5 trihydroxystilbene], which inhibition at 5 µg/mL [1] is on record?
A: 25%

Q: What about the inhibition at 5 µg/mL [2] of the same compound?
A: 25%
